From patent US12077503B2, “Substituted cyclic amides and their use as herbicides” (FMC CORPORATION, priority 2015, dated 2024)

Columns and labels:
Assay type in all cases: in vivo
Kochia (Kochia scoparia) [1] = test: Test A postemergence; conditions: Bassia scoparia, post-emergence, 240 h
Summary of the method: (§1)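 In a loam soil and sand blend, planted seeds got a preemergence directed soil spray, and young plants at the one- to two-leaf stage, 2–10 cm high, got a postemergence application; ~10 d greenhouse hold; injury rated visually, 0 = none, 100 = complete control.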

[2] = tested on: blackgrass (Alopecurus myosuroides); test: Test A postemergence; conditions: Alopecurus myosuroides, post-emergence, 240 h
Summary of the method: as §1

[3] = tested on: wheat (Triticum aestivum); test: Test A postemergence; conditions: Triticum aestivum, post-emergence, 240 h, Postemergence, 500 g ai/ha; visual injury, 0 to 100 scale (0 no effect, 100 complete control), approx. 10 d; read-out: Plant response rating, Wheat
Summary of the method: as §1

[4] = tested on: ragweed (common ragweed, Ambrosia elatior); test: Test A postemergence; conditions: Ambrosia artemisiifolia, post-emergence, 240 h
Summary of the method: as §1

[5] = tested on: ryegrass, Italian (Italian ryegrass, Lolium multiflorum); test: Test A postemergence; conditions: Lolium multiflorum, post-emergence, 240 h
Summary of the method: as §1

[6] = tested on: pigweed (Amaranthus retroflexus); test: Test A postemergence; conditions: Amaranthus retroflexus, post-emergence, 240 h
Summary of the method: as §1

corn (Zea mays) = test: Test A postemergence; conditions: Zea mays, post-emergence, 240 h
Summary of the method: as §1

[7] = tested on: Galium (catchweed bedstraw, Galium aparine); test: Test A postemergence; conditions: Galium, post-emergence, 240 h
Summary of the method: as §1

[8] = tested on: barnyardgrass (Echinochloa crus-galli); test: Test A postemergence; conditions: Echinochloa crus-galli, post-emergence, 240 h
Summary of the method: as §1

[9] = tested on: giant foxtail (Setaria faberii); test: Test A postemergence; conditions: Setaria faberi, post-emergence, 240 h
Summary of the method: as §1

Kochia (Kochia scoparia) [10] = test: Test A preemergence; conditions: Bassia scoparia, pre-emergence, 240 h, preemergence, 0 to 100 scale where 0 is no effect and 100 is complete control, read-out: Kochia plant response rating
Summary of the method: as §1

[11] = tested on: ragweed (common ragweed, Ambrosia elatior); test: Test A preemergence; conditions: Ambrosia artemisiifolia, pre-emergence, 240 h, preemergence, 0 to 100 scale where 0 is no effect and 100 is complete control, read-out: Ragweed plant response rating
Summary of the method: as §1

[12] = tested on: ryegrass, Italian (Italian ryegrass, Lolium multiflorum); test: Test A preemergence; conditions: Lolium multiflorum, pre-emergence, 240 h, preemergence, 0 to 100 scale where 0 is no effect and 100 is complete control, read-out: Ryegrass, Italian plant response rating
Summary of the method: as §1

[13] = tested on: pigweed (Amaranthus retroflexus); test: Test A preemergence; conditions: Amaranthus retroflexus, pre-emergence, 240 h, preemergence, 0 to 100 scale where 0 is no effect and 100 is complete control, read-out: Pigweed plant response rating
[14] = tested on: giant foxtail (Setaria faberii); test: Test A preemergence; conditions: Setaria faberi, pre-emergence, 240 h, preemergence, 0 to 100 scale where 0 is no effect and 100 is complete control, read-out: Foxtail, Giant plant response rating
Summary of the method: as §1

[15] = 125 g ai/ha, visual injury rating, approximately 10 d

CSc1ccccc1NC(=O)[C@H]1C(=O)NC[C@@H]1c1ccc2c(c1)OCO2 [Compound 1257]
0%: pest or weed control at 125 g/ha (Kochia (Kochia scoparia) [1]; 125 g ai/ha, postemergence, visual injury vs untreated controls after approx. 10 d, 0 = no effect, 100 = complete control, read-out: Kochia plant response rating (0 to 100 scale)) | pest or weed control at 500 g/ha (Kochia (Kochia scoparia) [1]; Postemergence, 500 g ai/ha, visual injury, 0 to 100 scale (0 no effect, 100 complete control), approx. 10 d, read-out: Plant response rating, Kochia) | pest or weed control at 125 g/ha ([2]; 125 g ai/ha, postemergence, visual injury vs untreated controls after approx. 10 d, 0 = no effect, 100 = complete control, read-out: Blackgrass plant response rating (0 to 100 scale)) | pest or weed control at 500 g/ha ([2]; Postemergence, 500 g ai/ha, visual injury, 0 to 100 scale (0 no effect, 100 complete control), approx. 10 d, read-out: Plant response rating, Blackgrass) | plant injury at 500 g/ha [3] | pest or weed control at 125 g/ha ([4]; 125 g ai/ha, postemergence, visual injury vs untreated controls after approx. 10 d, 0 = no effect, 100 = complete control, read-out: Ragweed plant response rating (0 to 100 scale)) | pest or weed control at 500 g/ha ([4]; Postemergence, 500 g ai/ha, visual injury, 0 to 100 scale (0 no effect, 100 complete control), approx. 10 d, read-out: Plant response rating, Ragweed) | pest or weed control at 125 g/ha ([5]; 125 g ai/ha, postemergence, visual injury vs untreated controls after approx. 10 d, 0 = no effect, 100 = complete control, read-out: Ryegrass, Italian plant response rating (0 to 100 scale)) | pest or weed control at 500 g/ha ([5]; Postemergence, 500 g ai/ha, visual injury, 0 to 100 scale (0 no effect, 100 complete control), approx. 10 d, read-out: Plant response rating, Ryegrass, Italian) | pest or weed control at 125 g/ha ([6]; 125 g ai/ha, postemergence, visual injury vs untreated controls after approx. 10 d, 0 = no effect, 100 = complete control, read-out: Pigweed plant response rating (0 to 100 scale)) | pest or weed control at 500 g/ha ([6]; Postemergence, 500 g ai/ha, visual injury, 0 to 100 scale (0 no effect, 100 complete control), approx. 10 d, read-out: Plant response rating, Pigweed) | plant injury at 125 g/ha (corn (Zea mays); 125 g ai/ha, postemergence, visual injury vs untreated controls after approx. 10 d, 0 = no effect, 100 = complete control, read-out: Corn plant response rating (0 to 100 scale)) | Corn plant response rating (crop injury, 0 = no effect, 100 = complete kill) at 500 g/ha (corn (Zea mays); Postemergence, 500 g ai/ha, visual injury, 0 to 100 scale (0 no effect, 100 complete control), approx. 10 d) | pest or weed control at 125 g/ha ([7]; 125 g ai/ha, postemergence, visual injury vs untreated controls after approx. 10 d, 0 = no effect, 100 = complete control, read-out: Galium plant response rating (0 to 100 scale)) | pest or weed control at 500 g/ha ([7]; Postemergence, 500 g ai/ha, visual injury, 0 to 100 scale (0 no effect, 100 complete control), approx. 10 d, read-out: Plant response rating, Galium) | pest or weed control at 125 g/ha ([8]; 125 g ai/ha, postemergence, visual injury vs untreated controls after approx. 10 d, 0 = no effect, 100 = complete control, read-out: Barnyardgrass plant response rating (0 to 100 scale)) | pest or weed control at 500 g/ha ([8]; Postemergence, 500 g ai/ha, visual injury, 0 to 100 scale (0 no effect, 100 complete control), approx. 10 d, read-out: Plant response rating, Barnyardgrass) | pest or weed control at 125 g/ha ([9]; 125 g ai/ha, postemergence, visual injury vs untreated controls after approx. 10 d, 0 = no effect, 100 = complete control, read-out: Foxtail, Giant plant response rating (0 to 100 scale)) | pest or weed control at 500 g/ha ([9]; Postemergence, 500 g ai/ha, visual injury, 0 to 100 scale (0 no effect, 100 complete control), approx. 10 d, read-out: Plant response rating, Foxtail, Giant) | pest or weed control at 125 g/ha (Kochia (Kochia scoparia) [10]; [15]) | pest or weed control at 500 g/ha (Kochia (Kochia scoparia) [10]; 500 g ai/ha) | pest or weed control at 125 g/ha [11, 15] | pest or weed control at 500 g/ha ([11]; 500 g ai/ha) | pest or weed control at 125 g/ha [12, 15] | pest or weed control at 500 g/ha ([12]; 500 g ai/ha) | pest or weed control at 125 g/ha [13, 15] | pest or weed control at 500 g/ha ([13]; 500 g ai/ha) | pest or weed control at 125 g/ha [14, 15] | pest or weed control at 500 g/ha ([14]; 500 g ai/ha)
